In patent US20090131370A1, “Novel Nucleoside Derivatives” (METABASIS THERAPEUTICS , INC., priority 2004, published 2009):

Columns and labels:
[1] = Conversion of Compound 31.5 to 2′-β-methyladenosine in human liver S9; format: in vitro ADME; details: Human liver S9, 37° C., pH 7.4
Description: (§1) The rate of Compound 31.5 conversion to nucleoside was evaluated in liver S9 obtained from rat, dog, monkey and human liver. […] The homogenate was centrifuged in a Sorvall RC-5B Refrigerated Superspeed Centrifuge (30 minutes at 10,000 g) and the resulting supernatant used in the assays. The other S9 preparations were purchased from 1n Vitro Technologies. […] Aliquots of the reaction mixture were quenched with 2 volumes of ice-cold acetonitrile/0.2% formic acid (pH 3.0) at appropriate time intervals, briefly vortexed, and then immediately placed on dry ice. After all time points were taken, the samples were centrifuged in an Eppendorf microfuge (14,000 rpm, 10 minutes). The supernatant fractions were analyzed for disappearance of prodrug (and appearance of 2′-β-methyladenosine) by reverse phase HPLC on an Agilent Zorbax SB-Aq column (511m, 4.6×150 mm). The loading mobile phase buffer (Buffer A) consisted of a 9:1 ratio (v/v) of 20 mM potassium phosphate, pH 6.2 and acetonitrile. […] The elution of reaction components was monitored at […]. Quantitation was by comparison to authentic standards prepared in liver S9 and processed in an identical fashion to the unknown samples. The rate of prodrug conversion was calculated from the linear portion of the reaction curves and expressed as nmoles converted per mg of S9 protein per minute of reaction time.

[2] = Susceptibility to non-productive metabolism in vivo: 2′-β-C-methylinosine AUC in rat plasma and tissues; parameters: species or system male Sprague-Dawley rats; details: male, Sprague-Dawley
Description: The susceptibility of 2′-β-C-methyladenosine, and its 2′,3′-carbonate prodrugs to non-productive metabolism was evaluated in vitro and in vivo. […] Also at the pre-specified times, blood (heparinized) was collected from the vena cava and centrifuged briefly to obtain plasma. […] The supernatant was then analysis for deaminated products and other metabolites by LC-UV as described above.

[3] = Conversion of Compound 31.5 to 2′-β-methyladenosine in rat liver S9; format: in vitro ADME; details: Rat liver S9, 37° C., pH 7.4
Description: as §1

HCV = assay: Antiviral activity in HCV-infected human liver slice assay; format: cell-based, hepatitis C virus; details: HCV RNA in culture media
Description: The effect of various compounds on HCV replication in human liver tissue was evaluated as described below.
Liver from a brain-dead HCV antibody-positive human patient was perfused with ice-cold Viaspan (Dupont Pharmaceutical) preservation solution and received on ice in Viaspan.
Precision-cut liver slices of ˜200-250 μm thickness and […] diameter were prepared and cultured in Waymouth's cell culture medium (Gibco, Inc.) that was supplemented with 10% fetal bovine serum and 10 mL/L Fungi-Bact at 37° C., and gassed with carbogen (95% O2, 5% CO2) at 0.75 liters/min. Tissue slices were maintained in culture for 72 h. Cell culture medium containing test compound in solution was changed on a daily basis.
At appropriate times of liver slice incubation, liver slices and medium were collected for analysis of HCV RNA (tissue and medium) and nucleotide levels (NTP). All collected media and tissue slices were maintained in liquid N2 until analysis.
Medium and tissue samples were analyzed for HCV RNA levels according to published procedures (Bonacini et. al., 1999) which utilize an automated, multicycle, polymerase chain reaction (PCR)-based technique. This assay has a lower limit of detection for HCV RNA of 100 viral copies/ml. Frozen liver slices were disrupted by using a combination of ultrasound probe sonication, Branson Sonifier 450 (Branson Ultrasonics, Danbury, Conn.) and homogenization using a Dounce conical pestle in 200 μls of 10% (v/v) perchloric acid (PCA). After a 5 min centrifugation at 2,500×g, the supernatants were neutralized using 3 M KOH/3 M KHCO3 and mixed thoroughly. The neutralized samples were centrifuged at 2,500 g for 5 min and NTP levels were determined by ion exchange phase HPLC (Hewlett Packard 1050) using a Whatman Partisil 5 SAX (5 μm, 4.6×250 mm) column. Samples (50 μL) were injected onto the column in 70% 10 mM ammonium phosphate buffer and 30% 1 M ammonium phosphate buffer, both at pH 3.5 and containing 6% ethanol. Nucleoside triphosphates were eluted from the column using a linear gradient to 80% 1 M ammonium phosphate pH 3.5/6% ethanol buffer, at a flow rate of 1.25 mL/min and detected by UV absorbance (254 nm).

[4] = Susceptibility to non-productive metabolism (deamination) in vitro in rat whole blood or plasma; format: in vitro ADME; details: rat
Description: The susceptibility of 2′-β-C-methyladenosine, and its 2′,3′-carbonate prodrugs to non-productive metabolism was evaluated in vitro and in vivo. […] Aliquots of the blood and plasma samples were removed periodically and extracted with perchloric acid and methanol, respectively, and then centrifuged. The acidic supernatants were neutralized with potassium carbonate and recentrifuged. […] Analysis (50 μL) was performed on an Agilent Zorbax SB-Aq column (4.6×150 mm) eluted with a gradient consisting of a mixture of Buffer A (20 mM potassium phosphate pH 6.2) and Buffer B (acetonitrile) (0-10 min, 0-10%; 10-20 min, 10-80%, 20-21 min, 80-0%; 21-30 min, 0-0%) and UV absorbance monitoring at 265 nm. The flow rate was 1.5 mL/min and the column temperature was set at 40° C. Concentrations of metabolite were determined from calibration curves prepared by spiking known amounts of standards to plasma and processing as before.

[5] = Conversion of Compound 31.5 to 2′-β-methyladenosine in dog (Beagle) liver S9; format: in vitro ADME; details: Beagle liver S9, 37° C., pH 7.4
Description: as §1

SMILES: C[C@@]12OC(=O)O[C@@H]1[C@@H](CO)O[C@H]2n1cnc2c(N)ncnc21 [Compound 31.5, 2′,3′-Carbonyl-2′-C-beta-methyl-adenosine]
- Specific activity (rate of prodrug disappearance) [1]: 0.03 ± 0.005 nmol/min/mg
- deaminated product 2′-B-C-methylinosine in plasma, liver, heart, and muscle tissue [2]: 2′-B-C-methylinosine was detected in plasma, liver, heart, and muscle tissue
- Specific activity (rate of prodrug disappearance) [3]: 0.28 ± 0.03 nmol/min/mg
- % decrease in viral RNA relative to untreated liver slices (HCV; 0.25 μM): 0%
- % decrease in viral RNA relative to untreated liver slices (HCV; 2.5 μM): 93%
- % decrease in viral RNA relative to untreated liver slices (HCV; 25 μM): 85%
- % decrease in viral RNA relative to untreated liver slices (HCV; 100 μM): 75%
- deaminated product (2′-β-C-methylinosine) after incubation in rat whole blood in vitro [4]: 2′-β-C-methylinosine was observed
- Specific activity (rate of prodrug disappearance) [5]: 2.0 ± 0.3 nmol/min/mg
